For this data set the following is noted: Liquid, Closed cell (Static) method.

This note sets out measurements from the NIST ThermoML archive (doi:10.1016/j.jct.2016.08.031).

Structures are written as SMILES. ± gives the expanded uncertainty stated by the source.

In the case of `CC(C)C` [2-methylpropane], the “vapor or sublimation pressure” value reads like this: (303.15 K) 404.5 ± 1.2 kPa; (313.15 K) 530.9 ± 1.3 kPa; (323.15 K) 684.6 ± 1.4 kPa; (333.15 K) 869 ± 1.7 kPa; (343.15 K) 1087.4 ± 1.9 kPa; (353.15 K) 1343.4 ± 2.3 kPa.
As for `F/C=C\C(F)(F)F` [(Z)-1,3,3,3-tetrafluoro-1-propene], the “vapor or sublimation pressure” value runs as follows: (303.15 K) 210.6 ± 1.1 kPa; (313.15 K) 290.7 ± 1.1 kPa; (323.15 K) 391.8 ± 1.2 kPa; (333.15 K) 517.4 ± 1.3 kPa; (343.15 K) 671.3 ± 1.4 kPa; (353.15 K) 859.2 ± 1.6 kPa.

As a reminder, the vapor or sublimation pressure is the pressure of vapour in equilibrium with the condensed phase.
